# In article PMC3237899 (2011):
# Key:
# [1] = biological target: Jak2 wild type (Homo sapiens, UniProt O60674); assay: in vitro kinase assay with recombinant protein, autophosphorylation; assay type: biochemical
# [2] = biological target: Jak2-V617F (Homo sapiens, UniProt O60674, V617F); assay: as above; assay type: biochemical
# Sequence of Jak2-V617F (O60674 545-1132 V617F limits assumed): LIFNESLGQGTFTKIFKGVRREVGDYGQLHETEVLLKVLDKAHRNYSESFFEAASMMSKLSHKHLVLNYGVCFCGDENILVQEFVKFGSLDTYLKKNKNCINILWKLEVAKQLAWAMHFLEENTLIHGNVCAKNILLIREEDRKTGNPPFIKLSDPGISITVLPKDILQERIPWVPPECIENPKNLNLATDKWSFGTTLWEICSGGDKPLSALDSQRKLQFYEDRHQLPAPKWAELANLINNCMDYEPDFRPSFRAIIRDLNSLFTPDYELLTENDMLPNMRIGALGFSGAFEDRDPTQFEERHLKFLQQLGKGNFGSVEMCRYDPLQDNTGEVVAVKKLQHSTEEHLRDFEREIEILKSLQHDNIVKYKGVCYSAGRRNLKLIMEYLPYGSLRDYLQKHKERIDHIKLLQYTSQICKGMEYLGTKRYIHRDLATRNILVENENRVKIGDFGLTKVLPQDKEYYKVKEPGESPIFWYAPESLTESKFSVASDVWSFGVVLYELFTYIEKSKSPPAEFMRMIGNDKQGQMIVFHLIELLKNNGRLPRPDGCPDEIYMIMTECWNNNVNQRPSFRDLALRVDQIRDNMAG
# Sequence of Jak2 wild type (O60674 whole entry): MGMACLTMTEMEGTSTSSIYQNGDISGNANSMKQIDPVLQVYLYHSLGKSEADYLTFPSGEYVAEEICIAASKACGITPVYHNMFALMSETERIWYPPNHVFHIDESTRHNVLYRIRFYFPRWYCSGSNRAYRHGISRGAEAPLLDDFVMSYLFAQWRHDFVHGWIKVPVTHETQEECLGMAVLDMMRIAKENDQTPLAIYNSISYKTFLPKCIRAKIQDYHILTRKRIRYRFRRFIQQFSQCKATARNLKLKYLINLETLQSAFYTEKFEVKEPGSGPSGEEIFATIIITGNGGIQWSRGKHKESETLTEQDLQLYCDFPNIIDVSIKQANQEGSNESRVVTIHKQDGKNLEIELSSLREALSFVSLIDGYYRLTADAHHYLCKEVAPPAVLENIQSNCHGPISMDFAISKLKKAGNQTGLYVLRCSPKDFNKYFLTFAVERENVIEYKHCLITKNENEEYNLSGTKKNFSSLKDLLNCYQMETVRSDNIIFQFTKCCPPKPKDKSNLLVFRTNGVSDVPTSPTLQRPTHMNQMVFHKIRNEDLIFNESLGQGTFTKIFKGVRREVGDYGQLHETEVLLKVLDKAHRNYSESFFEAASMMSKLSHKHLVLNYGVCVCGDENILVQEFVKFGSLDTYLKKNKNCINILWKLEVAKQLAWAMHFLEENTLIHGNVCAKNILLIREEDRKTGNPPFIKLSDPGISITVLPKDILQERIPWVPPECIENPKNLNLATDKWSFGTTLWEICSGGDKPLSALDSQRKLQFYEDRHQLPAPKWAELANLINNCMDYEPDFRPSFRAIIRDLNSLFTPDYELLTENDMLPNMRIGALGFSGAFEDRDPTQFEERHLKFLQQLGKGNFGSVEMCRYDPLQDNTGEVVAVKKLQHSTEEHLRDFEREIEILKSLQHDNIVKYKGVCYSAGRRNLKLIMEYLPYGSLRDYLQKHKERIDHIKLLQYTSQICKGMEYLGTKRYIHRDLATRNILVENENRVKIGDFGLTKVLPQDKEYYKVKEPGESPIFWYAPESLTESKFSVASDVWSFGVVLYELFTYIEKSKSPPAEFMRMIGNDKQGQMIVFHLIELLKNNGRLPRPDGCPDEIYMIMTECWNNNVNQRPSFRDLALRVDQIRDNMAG
structure (smiles),measurement,setting,value
"CN(C)c1ccc(C(O)c2cc3ccccc3s2)cc1 (centres unmarked) [A46, 1-benzothiophen-2-yl-(4-dimethylaminophenyl)methanol]",IC50,[1],~1000 nM
same,IC50,[2],~100 nM
